Reference: patent US4436751A, “Nitrobenzyl monates antibacterial compounds” (Beecham Group Limited, priority 1980, dated 1984)
Values after ≈ are worked out from the molar mass of the structure shown. Read-outs that look alike come from different tables or passages of the source.

Key:
Format in all cases: cell-based
M. hyorhinis ATCC 25021 = assay: Anti-mycoplasmal MIC in vitro, Friis broth agarose (Table 1); conditions: Mesomycoplasma hyorhinis, ATCC25021, 144 h
[1] = test system: M. suipneumoniae NCTC 10110; assay: as above; conditions: Mesomycoplasma hyopneumoniae, NCTC10110, 144 h
M. suipneumoniae HR(2) = assay: as above; conditions: Mesomycoplasma hyopneumoniae, 144 h
M. pneumoniae ATCC 15492 = assay: as above; conditions: Mycoplasmoides pneumoniae, ATCC15492, 144 h
[2] = test system: M. hyosynoviae ATOC 25591; assay: as above; conditions: 144 h
P. mirabilis 889 = assay: Human bacteria MIC, nutrient agar with chocolated horse blood (Table 3)
Protocol: (§1) The values were determined by serial dilutions in nutrient agar with 5% chocolated horse blood after incubations for 18 hours at 37° C.

Staph. aureus W2827 = assay: as above; conditions: Staphylococcus aureus
Protocol: as §1

Strep. pneumoniae CN33 = assay: as above; conditions: Streptococcus pneumoniae
Protocol: as §1

Bacillus subtilis 6633 = assay: as above
Protocol: as §1

Sarcina lutea 8340 = assay: as above
Protocol: as §1

[3] = test system: Haemophilus influenzae Q1; assay: as above
Protocol: as §1

E. coli ESS = assay: as above; conditions: Escherichia coli
Protocol: as §1

[4] = test system: Ps. aeruginosa NCTC 10662; assay: as above; conditions: Pseudomonas aeruginosa
Protocol: as §1

K. aerogenes A = assay: as above; conditions: Klebsiella aerogenes
Protocol: as §1

[5] = test system: Neisseria catarrhalis 1502; assay: as above
Protocol: as §1

[6] = test system: Corynebacterium xerosis 9755; assay: as above
Protocol: as §1

[7] = test system: Strep. pyogenes R80/421-A; assay: as above; conditions: Streptococcus pyogenes
Protocol: as §1

Strep. faecalis 1 = assay: as above
Protocol: as §1

Strep. 641848-C = assay: as above
Protocol: as §1

Staph. aureus Russell = assay: as above; conditions: Staphylococcus aureus
Protocol: as §1

[8] = test system: Pasteurella multocida 1633; assay: as above
Protocol: as §1

Staph. aureus Oxford = assay: as above; conditions: Staphylococcus aureus
Protocol: as §1

E. Coli NCTC 10418 = assay: as above; conditions: Escherichia coli
Protocol: as §1

M. suipneumoniae JF 435 = assay: Anti-mycoplasmal MIC in vitro, Friis broth agarose (Table 1); conditions: Mesomycoplasma hyopneumoniae, JF435, 144 h
[9] = test system: M. suipneumoniae J2206/183b; assay: as above; conditions: Mesomycoplasma hyopneumoniae, 144 h
M. suipneumoniae NB12 = assay: as above; conditions: Mesomycoplasma hyopneumoniae, NB12, 144 h
M. dispar RCTC 10125 = assay: as above; conditions: 144 h
M. suipneumoniae TAM 6N = assay: as above; conditions: Mesomycoplasma hyopneumoniae, TAM6N, 144 h
[10] = M. suipneumoniae HR(2), in vitro, 6 days 37° C., read-out: MIC
[11] = M. pneumoniae ATCC 15492, in vitro, 6 days 37° C., read-out: MIC
[12] = Proteus mirabilis, P. mirabilis 889, nutrient agar 5% chocolated horse blood, 18 hours 37° C., read-out: MIC
[13] = Staph. aureus W2827, nutrient agar 5% chocolated horse blood, 18 hours 37° C., read-out: MIC
[14] = Strep. pneumoniae CN33, nutrient agar 5% chocolated horse blood, 18 hours 37° C., read-out: MIC
[15] = Bacillus subtilis 6633, nutrient agar 5% chocolated horse blood, 18 hours 37° C., read-out: MIC
[16] = Micrococcus luteus, Sarcina lutea 8340, nutrient agar 5% chocolated horse blood, 18 hours 37° C., read-out: MIC
[17] = Haemophilus influenzae Q1, nutrient agar 5% chocolated horse blood, 18 hours 37° C., read-out: MIC
[18] = E. coli ESS, nutrient agar 5% chocolated horse blood, 18 hours 37° C., read-out: MIC
[19] = NCTC10662, Ps. aeruginosa NCTC 10662, nutrient agar 5% chocolated horse blood, 18 hours 37° C., read-out: MIC
[20] = K. aerogenes A, nutrient agar 5% chocolated horse blood, 18 hours 37° C., read-out: MIC
[21] = Corynebacterium xerosis 9755, nutrient agar 5% chocolated horse blood, 18 hours 37° C., read-out: MIC
[22] = Enterococcus faecalis, Strep. faecalis 1, nutrient agar 5% chocolated horse blood, 18 hours 37° C., read-out: MIC
[23] = Staph. aureus Russell, nutrient agar 5% chocolated horse blood, 18 hours 37° C., read-out: MIC
[24] = Pasteurella multocida 1633, nutrient agar 5% chocolated horse blood, 18 hours 37° C., read-out: MIC
[25] = Staph. aureus Oxford, nutrient agar 5% chocolated horse blood, 18 hours 37° C., read-out: MIC
[26] = NCTC10418, E. coli NCTC 10418, nutrient agar 5% chocolated horse blood, 18 hours 37° C., read-out: MIC
[27] = M. suipneumoniae JF 435, in vitro, 6 days 37° C., read-out: MIC
[28] = M. suipneumoniae TAM 6N, in vitro, 6 days 37° C., read-out: MIC

| SMILES | MIC (M. hyorhinis ATCC 25021) | MIC [1] | MIC [2] | MIC ([7]; R80/421A, 18 h) | MIC (Strep. 641848-C; 18 h) | MIC ([9]; J2206/183B) | MIC (M. suipneumoniae NB12) | MIC (M. dispar RCTC 10125) | MIC (M. suipneumoniae HR(2); [10]) | MIC (M. pneumoniae ATCC 15492; [11]) | MIC (P. mirabilis 889; [12]) | MIC (Staph. aureus W2827; [13]) | MIC (Strep. pneumoniae CN33; [14]) | MIC (Bacillus subtilis 6633; [15]) | MIC (Sarcina lutea 8340; [16]) | MIC [3, 17] | MIC (E. coli ESS; [18]) | MIC [4, 19] | MIC (K. aerogenes A; [20]) | MIC [6, 21] | further results |
| --- | --- | --- | --- | --- | --- | --- | --- | --- | --- | --- | --- | --- | --- | --- | --- | --- | --- | --- | --- | --- | --- |
| C/C(=C\C(=O)OCc1ccc([N+](=O)[O-])cc1[N+](=O)[O-])CC1OCC(CC2OC2C(C)C(C)O)C(O)C1O (centres unmarked) [Example 10, 2,4-dinitrobenzyl monate A] | 0.5 µg/mL (≈ 0.953 µM) | 1 µg/mL (≈ 1.91 µM) | 0.25 µg/mL (≈ 0.477 µM) | 0.25 µg/mL (≈ 0.477 µM) | 2.5 µg/mL (≈ 4.77 µM) | 1 µg/mL (≈ 1.91 µM) | 1 µg/mL (≈ 1.91 µM) | 0.25 µg/mL (≈ 0.477 µM) | – | – | – | – | – | – | – | – | – | – | – | – | MIC (M. suipneumoniae HR(2)): 1 µg/mL (≈ 1.91 µM); MIC (M. pneumoniae ATCC 15492): 2.5 µg/mL (≈ 4.77 µM); MIC (P. mirabilis 889; Proteus mirabilis, 889, 18 h): > 100 µg/mL; MIC (Staph. aureus W2827; W2827, 18 h): 2.5 µg/mL (≈ 4.77 µM); MIC (Strep. pneumoniae CN33; CN33, 18 h): 2.5 µg/mL (≈ 4.77 µM); MIC (Bacillus subtilis 6633; Bacillus subtilis, 6633, 18 h): 0.25 µg/mL (≈ 0.477 µM); MIC (Sarcina lutea 8340; Micrococcus luteus, 8340, 18 h): > 100 µg/mL; MIC ([3]; Haemophilus influenzae, Q1, 18 h): 0.5 µg/mL (≈ 0.953 µM); MIC (E. coli ESS; 18 h): 2.5 µg/mL (≈ 4.77 µM); MIC ([4]; NCTC10662, 18 h): > 100 µg/mL; MIC (K. aerogenes A; 18 h): > 100 µg/mL; MIC ([5]; Neisseria, 1502, 18 h): 0.05 µg/mL (≈ 0.0953 µM); MIC ([6]; Corynebacterium xerosis, 9755, 18 h): > 100 µg/mL; MIC (Strep. faecalis 1; Enterococcus faecalis, 1, 18 h): > 100 µg/mL; MIC (Staph. aureus Russell; 18 h): 2.5 µg/mL (≈ 4.77 µM); MIC ([8]; Pasteurella multocida, 1633, 18 h): 2.5 µg/mL (≈ 4.77 µM); MIC (Staph. aureus Oxford; 18 h): 1 µg/mL (≈ 1.91 µM); MIC (E. Coli NCTC 10418; NCTC10418, 18 h): > 100 µg/mL; MIC (M. suipneumoniae JF 435): 1 µg/mL (≈ 1.91 µM); MIC (M. suipneumoniae TAM 6N): 1 µg/mL (≈ 1.91 µM) |
| C/C(=C\C(=O)OC(C)c1ccc([N+](=O)[O-])cc1)CC1OCC(CC2OC2C(C)C(C)O)C(O)C1O (centres unmarked) [Example 4, 1-(p-nitrophenyl)ethyl monate A] | 0.5 µg/mL (≈ 1.01 µM) | – | – | – | – | 1 µg/mL (≈ 2.03 µM) | 1 µg/mL (≈ 2.03 µM) | – | 2.5 µg/mL (≈ 5.07 µM) | 10 µg/mL (≈ 20.3 µM) | > 100 µg/mL | 2.5 µg/mL (≈ 5.07 µM) | 1 µg/mL (≈ 2.03 µM) | 1 µg/mL (≈ 2.03 µM) | > 100 µg/mL | 1 µg/mL (≈ 2.03 µM) | 2.5 µg/mL (≈ 5.07 µM) | > 100 µg/mL | > 100 µg/mL | > 100 µg/mL | MIC ([1]; M. suipneumoniae NCTC 10110, in vitro, 6 days 37° C., read-out: MIC): 2.5 µg/mL (≈ 5.07 µM); MIC ([2]; M. hyosynoviae ATOC 25591, in vitro, 6 days 37° C., read-out: MIC): 0.1 µg/mL (≈ 0.203 µM); MIC ([5]; Neisseria catarrhalis 1502, nutrient agar 5% chocolated horse blood, 18 hours 37° C., read-out: MIC): 0.5 µg/mL (≈ 1.01 µM); MIC ([7]; Strep. pyogenes R80/421-A, nutrient agar 5% chocolated horse blood, 18 hours 37° C., read-out: MIC): 1 µg/mL (≈ 2.03 µM); MIC (Strep. faecalis 1; [22]): > 100 µg/mL; MIC (Strep. 641848-C; Strep. 641848-C, nutrient agar 5% chocolated horse blood, 18 hours 37° C., read-out: MIC): 1 µg/mL (≈ 2.03 µM); MIC (Staph. aureus Russell; [23]): 2.5 µg/mL (≈ 5.07 µM); MIC [8, 24]: 10 µg/mL (≈ 20.3 µM); MIC (Staph. aureus Oxford; [25]): 2.5 µg/mL (≈ 5.07 µM); MIC (E. Coli NCTC 10418; [26]): > 100 µg/mL; MIC (M. suipneumoniae JF 435; [27]): 2.5 µg/mL (≈ 5.07 µM); MIC (M. dispar RCTC 10125; M. dispar RCTC 10125, in vitro, 6 days 37° C., read-out: MIC): 0.1 µg/mL (≈ 0.203 µM); MIC (M. suipneumoniae TAM 6N; [28]): 2.5 µg/mL (≈ 5.07 µM) |
| C/C(=C\C(=O)OCc1ccc([N+](=O)[O-])cc1)CC1OCC(CC2OC2C(C)C(C)O)C(O)C1O (centres unmarked) [Example 1, p-nitrobenzyl monate A] | 0.05 µg/mL (≈ 0.104 µM) | 0.05 µg/mL (≈ 0.104 µM) | < 0.01 µg/mL | 0.25 µg/mL (≈ 0.521 µM) | 0.25 µg/mL (≈ 0.521 µM) | – | 0.05 µg/mL (≈ 0.104 µM) | 0.025 µg/mL (≈ 0.0521 µM) | 0.1 µg/mL (≈ 0.209 µM) | 0.1 µg/mL (≈ 0.209 µM) | 100 µg/mL (≈ 209 µM) | 0.5 µg/mL (≈ 1.04 µM) | 0.1 µg/mL (≈ 0.209 µM) | 0.5 µg/mL (≈ 1.04 µM) | > 100 µg/mL | 0.1 µg/mL (≈ 0.209 µM) | 0.5 µg/mL (≈ 1.04 µM) | > 100 µg/mL | 100 µg/mL (≈ 209 µM) | > 100 µg/mL | MIC (Strep. faecalis 1; [22]): 50 µg/mL (≈ 104 µM); MIC (Staph. aureus Russell; [23]): 0.5 µg/mL (≈ 1.04 µM); MIC [8, 24]: 0.5 µg/mL (≈ 1.04 µM); MIC (Staph. aureus Oxford; [25]): 0.5 µg/mL (≈ 1.04 µM); MIC (E. Coli NCTC 10418; [26]): 25 µg/mL (≈ 52.1 µM); MIC (M. suipneumoniae JF 435; [27]): 0.1 µg/mL (≈ 0.209 µM); MIC ([9]; M. suipneumoniae J2206/183b, in vitro, 6 days 37° C., read-out: MIC): 0.1 µg/mL (≈ 0.209 µM); MIC (M. suipneumoniae TAM 6N; [28]): 0.1 µg/mL (≈ 0.209 µM) |
